Patent publication US20190336453A1, “ORAL DISPERSIBLE FILM COMPOSITION” (BonAyu Lifesciences Private Limited, priority 2017, published 2019)

Legend:
Assay type in all cases: physicochemical
UV assay of actives = conditions: UV absorbance at λmax, sample vs standard; ODF samples Examples 3-5
Protocol: A stock solution of 1000 μg/ml of alpha lipoic acid were prepared in methanol and measured absorbance at 322 nm.
Standard β-carotene for identification was prepared in DCM to obtain 1000 μg/mL and measured absorbance at 461 nm.
2 ml of the standard and sample solution of folic acid was taken in marked test tubes. In each test tube, 2 ml of 0.02% potassium permanganate solution, 2 ml 2% […] solution, 2 ml 4 M hydrochloric acid solution, 1 ml 5% ammonium sulphamate solution and 1 ml dye solution (0.1% N, N diethyl aniline dye solution in iso propyl alcohol) added and mixed well, then kept for 15 minute at room temperature. It was absorbance recorded at 535 nm against blank.
2 ml of the standard and sample solution of Vitamin B6 was taken in marked test tubes. In each test tube, 1 ml of ammonium buffer (in water), 1 ml of 20% sodium acetate (in water), 1 ml of 5% boric acid (in water) and 1 ml dye (2,6-di-chloroquinine chorimide) solution added and mixed well. It was absorbance recorded at 650 nm against blank.
The assay were prepared of standard and sample solutions of four actives, that is, lipoic acid, β-carotene, folic acid and Vitamin B6 respectively.

[1] = In-vitro disintegration time during formulation development (saliva stimulant and flavour optimisation)
Text: The purpose of using saliva stimulating agents is to increase the rate of production of saliva that would aid in the faster disintegration of the rapid dissolving strip formulations.
The concentration of menthol, eucalyptol and sucralose was optimized according to the mouth feel, freshening effect and the formulation was checked for its effect on disintegration time (Table 5).

[2] = Gas chromatography assay of actives in mouth freshener film; conditions: for Assay result (%): GC result relative to formula content, mouth freshener film; for GC Result (%): content in mouth freshener film
Text: Gas Chromatography is quantitative study use to determine assay of actives. GC was done by Bangalore Testing Laboratories Pvt. Ltd., Bangalore (FIG. 8). The GC is used to observe whether the active is intact in the film without its decomposition. Table 15 illustrated all the characteristic peaks of the actives (menthol, thymol, methyl salicylate, eucalyptol) used in the composition.

[3] = Thermogravimetric analysis (TGA); conditions: 30-360° C. at 20° C./min
Protocol: Thermogravimetric analysis (TGA) studies (Perkin Elmer Pyris 1, Shelton, Conn., USA) were performed to estimate the thermal stability of the actives and excipients during HME processing. Data were analyzed using Pyris software. The API excipients were heated from 30-360° C. at 20° C./min.

[4] = Raman spectroscopy for stability of active after HME; conditions: ODF containing Vitamin B12 (Example 6), Raman spectra
Protocol: Raman spectroscopy is a spectroscopic technique commonly used in chemistry to provide a structural fingerprint by which molecules can be identified. It can identify a particular molecule/API based on the Raman shift. The formulated ODFs were analyzed using Raman spectra for identification of stability of active in the delivery system after processing using HME. The Raman spectra was recorded with a LabRam HR800 (Horiba Jovan Yvon, UK) equipped with a 534-nm Ar—Ne laser. The laser excitation was focused using a 50 objective (Olympus Corporation, Japan) and the scattered light was totally transmitted through the notch filter towards the confocal hole and entrance slit of the spectrograph. The stokes-shifted Raman scatter was dispersed using a […] grating onto a peltier-cooled changed-coupled device (CCD, Andor Technology PLC) to capture a spectrum. Each sample had their spectra measured using […] excitation (at 534 nm) of 250 mW and continuous readout of Raman shift spectrum from 0 to 3500 cm^−1. Spectra were acquired using a 50× objective and a […] confocal hole. A 600 lines/mm rotatable diffraction grating along a path length of 800 mm was used to simultaneously scan a range of frequencies. Raman spectra were collected using a Synapse CCD detector (1024 pixels).

Row | Molecule | Assay of actives Result (%) (UV assay of actives) | Assay result (%) [2] | GC Result (%) [2] | also measured
1 | CC1=C(/C=C/C(C)=C/C=C/C(C)=C/C=C/C=C(C)/C=C/C=C(C)/C=C/C2=C(C)CCCC2(C)C)C(C)(C)CCC1 [B carotene] | 98.28% | – | – | –
2 | O=C(O)CC(O)(CC(=O)O)C(=O)O [Citric acid] | – | – | – | Disintegration time ([1]; saliva stimulating agent at 1 % composition): 14 s; Disintegration time ([1]; saliva stimulating agent at 5 % composition): Less than 10 seconds; Disintegration time ([1]; saliva stimulating agent at 10 % composition): Less than 10 seconds
3 | CC12CCC(CC1)C(C)(C)O2 [Eucalyptol] | – | 96.6% | 0.023(cineole % | –
4 | Nc1nc2ncc(CNc3ccc(C(=O)N[C@@H](CCC(=O)O)C(=O)O)cc3)nc2c(=O)[nH]1 [Folic acid] | 99.1% | – | – | –
5 | O=C(O)CCCCC1CCSS1 (centres unmarked) [Lipoic acid] | 100.5% | – | – | –
6 | CC1CCC(C(C)C)C(O)C1 (centres unmarked) [Menthol] | – | 92.1% | 0.035% | –
7 | COC(=O)c1ccccc1O [Methyl Salicylate] | – | 92.8% | 0.052% | –
8 | OC[C@H]1O[C@H](O[C@]2(CCl)O[C@H](CCl)[C@@H](O)[C@@H]2O)[C@H](O)[C@@H](O)[C@H]1Cl [Sucralose] | – | – | – | loss of weight [3]: < 7%
9 | Cc1ccc(C(C)C)c(O)c1 [Thymol] | – | 104.3% | 0.097% | –
10 | Vit B6 | 99.3% | – | – | –
11 | Vitamin B12 | – | – | – | stability of active after twin-screw HME processing [4]: does not degrade
